From ChEMBL document CHEMBL1201862, “PubChem BioAssay data set” (2004) come the findings set out here.

Test systems include HOP-18; DLD-1; DMS-114; XF498; M19-MEL; DMS-273; RXF 631; LXFL 529; SNB-78.
What all share (test): NCI tumour cell line growth inhibition, 48 h

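1) Cells in 96-well plates. 2) Compound, 48 h, 5 concentrations. 3) Linear interpolation between surrounding doses. 4) Unreached endpoint = highest concentration. GI50: concentration for 50% inhibition of growth.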 Activity calls are given as the source filed them. Rule as the data show it: active = GI50 up to about 1.1 µM and inactive = higher.

Consider `COC(=O)C(=O)C(C(=O)C(=O)Nc1cc([N+](=O)[O-])ccc1C#N)c1nc2ccccc2nc1O` (stereo not drawn), for which the GI50 with HOP-18, with DLD-1, in the assay on DMS-114, with XF498, in the assay on M19-MEL and with DMS-273 was > 100 µM (inactive) in each case. Also, the GI50 with RXF 631 and with LXFL 529 was > 100 µM (inactive) in each case.

In the case of `Cc1ccc(/C=C2\CCCCC2=O)cc1`, the GI50 in the assay with HOP-18 was 24 µM (inactive); in the assay on DLD-1, 49.2 µM (inactive); with DMS-114 it was 43.6 µM (inactive); with XF498, > 100 µM (inactive); in the assay with M19-MEL, > 100 µM (inactive); in the assay with DMS-273 it was 40.1 µM (inactive). In addition, the GI50 in the assay with RXF 631 was > 100 µM (inactive); with SNB-78, 73.6 µM (inactive); with LXFL 529 it was 94.6 µM (inactive).

For the compound `c1ccc(C(c2ccccc2)c2ccccn2)cc1`, the GI50 in the assay with HOP-18, in the assay with DLD-1, with DMS-114, in the assay on XF498, in the assay with M19-MEL and with DMS-273 was > 100 µM (inactive) each time. Moreover, the GI50 in the assay with RXF 631 and in the assay with SNB-78 was > 100 µM (inactive) each time.

As to `COc1cc2c(cc1O)C1C(O)C(O)C=C3CCN(C2)C31` (stereo not drawn), the GI50 in the assay on HOP-18 was 2.43 µM (inactive); in the assay with DLD-1, 2.47 µM (inactive); with DMS-114, 1.09 µM (active); in the assay with XF498 it was 1.36 µM (inactive); with M19-MEL it was 2.72 µM (inactive); in the assay with DMS-273, 1.95 µM (inactive). In addition, the GI50 was 2.97 µM (inactive) in the assay with RXF 631, 0.565 µM (active) with SNB-78 and 3.18 µM (inactive) with LXFL 529.

Take `Cc1cc2c(cc1C)[n+]([O-])c(C(=O)/C=C/c1ccc3c(c1)OCO3)c(C)[n+]2[O-]`: the GI50 in the assay on HOP-18 is > 100 µM (inactive); in the assay with DLD-1 it was > 100 µM (inactive); in the assay with DMS-114, 33.1 µM (inactive); in the assay on XF498, 27 µM (inactive); with M19-MEL it was > 100 µM (inactive); in the assay on DMS-273 it was 27 µM (inactive). Moreover, the GI50 in the assay on RXF 631 is 10.1 µM (inactive); in the assay with SNB-78 it was 60.3 µM (inactive).

As to `CCc1ccccc1NC(=O)CC1NC(=O)CS1` (stereo not drawn), the GI50 with HOP-18, in the assay with DLD-1, in the assay with DMS-114, in the assay on XF498, in the assay on M19-MEL and in the assay with DMS-273 was > 100 µM (inactive) each time. For the same compound, the GI50 in the assay with RXF 631, with SNB-78 and with LXFL 529 was > 100 µM (inactive) in each case.

As to `CC(=O)O[C@H]1C(=O)[C@@]2(C)C([C@H](OC(=O)c3ccccc3)[C@]3(O)C[C@H](OC(=O)[C@H](O)[C@H](NC(=O)c4ccccc4)c4ccc(Cl)cc4)C(C)=C1C3(C)C)C1(OC(C)=O)CO[C@@H]1C[C@@H]2O` (stereo partly drawn), the GI50 in the assay with HOP-18 is 0.0794 µM (active); with DLD-1 it was 0.00233 µM (active); in the assay on DMS-114 it was < 0.0001 µM (active); in the assay on XF498, 0.00728 µM (active); in the assay with M19-MEL it was 0.000302 µM (active); in the assay on DMS-273 it was 0.000111 µM (active). Moreover, the GI50 is 0.104 µM (active) with RXF 631, 0.071 µM (active) in the assay with SNB-78 and 0.00191 µM (active) with LXFL 529.

`NC(=O)c1cccc([C@@H]2O[C@H](CO)[C@@H](O)[C@H]2O)c1`: the GI50 with HOP-18 was 26.1 µM (inactive); in the assay on DLD-1 it was 5.46 µM (inactive); in the assay on DMS-114 it was 15.3 µM (inactive); with XF498 it was 2.05 µM (inactive); in the assay on M19-MEL it was 21 µM (inactive); in the assay on DMS-273, 7.66 µM (inactive). Also, the figures for the GI50 in the assay with RXF 631 and in the assay on SNB-78 were 12 µM (inactive) and 7.43 µM (inactive), respectively.
